Measured values taken from PubChem BioAssay AID1259407 (Chemical Carcinogenesis Research Information System (CCRIS), 2018).
Activity calls are given as the source filed them. How the calls were made is not given here.

System: CCRIS mutagenicity, Ames/micronucleus/aberration tests
Assay: CCRIS mutagenicity studies
[1] = Test System: AMES SALMONELLA TYPHIMURIUM, Strain/Indicator: TA98, Metabolic Activation: NONE, Method: PREINCUBATION
[2] = Test System: AMES SALMONELLA TYPHIMURIUM, Strain/Indicator: TA100, Metabolic Activation: NONE, Method: PREINCUBATION
[3] = Test System: AMES SALMONELLA TYPHIMURIUM, Strain/Indicator: TA1535, Metabolic Activation: NONE, Method: PREINCUBATION
[4] = Test System: AMES SALMONELLA TYPHIMURIUM, Strain/Indicator: TA1537, Metabolic Activation: NONE, Method: PREINCUBATION
[5] = Test System: AMES SALMONELLA TYPHIMURIUM, Strain/Indicator: TA100, Metabolic Activation: NONE, Method: STANDARD PLATE
[6] = Test System: AMES SALMONELLA TYPHIMURIUM, Strain/Indicator: TA1535, Metabolic Activation: NONE, Method: STANDARD PLATE

Structure (SMILES): COC(=O)C(c1ccccc1)C1CCCCN1 (centres undefined)
- mutagenic call (End Point: IN VITRO CHROMOSOMAL ABERRATIONS, Test System: CHINESE HAMSTER OVARY CELLS, Metabolic Activation: NONE): inactive; negative
- mutagenic call (End Point: IN VITRO CHROMOSOMAL ABERRATIONS, Test System: CHINESE HAMSTER OVARY CELLS, Metabolic Activation: RAT, LIVER, S-9, AROCLOR 1254): active; positive
- mutagenic call (End Point: In vivo chromosomal aberrations, Test System: Peripheral blood lymphocytes, Species: Monkey, Strain/Sex: Rhesus/Male, Route: Oral): inactive; negative
- mutagenic call (End Point: In vivo micronucleus, Test System: Peripheral blood lymphocytes, Species: Monkey, Strain/Sex: Rhesus/Male, Route: Oral): inactive; negative
- mutagenic call (Test System: AMES SALMONELLA TYPHIMURIUM, Strain/Indicator: TA97, Metabolic Activation: HAMSTER, LIVER, S-9, AROCLOR 1254 (10 OR 30%), Method: PREINCUBATION): inactive; negative
- mutagenic call (Test System: AMES SALMONELLA TYPHIMURIUM, Strain/Indicator: TA97, Metabolic Activation: NONE, Method: PREINCUBATION): inactive; negative
- mutagenic call (Test System: AMES SALMONELLA TYPHIMURIUM, Strain/Indicator: TA97, Metabolic Activation: RAT, LIVER, S-9, AROCLOR 1254 (10 OR 30%), Method: PREINCUBATION): inactive; negative
- mutagenic call (Test System: AMES SALMONELLA TYPHIMURIUM, Strain/Indicator: TA98, Metabolic Activation: HAMSTER, LIVER, S-9, AROCLOR 1254 (10%), Method: PREINCUBATION): inactive; negative
- mutagenic call (Test System: AMES SALMONELLA TYPHIMURIUM, Strain/Indicator: TA98, Metabolic Activation: HAMSTER, LIVER, S-9, AROCLOR 1254 (30%), Method: PREINCUBATION): inactive; negative
- mutagenic call [1]: inactive; negative
- mutagenic call (Test System: AMES SALMONELLA TYPHIMURIUM, Strain/Indicator: TA98, Metabolic Activation: RAT, LIVER, S-9, AROCLOR 1254 (10%), Method: PREINCUBATION): inactive; negative
- mutagenic call (Test System: AMES SALMONELLA TYPHIMURIUM, Strain/Indicator: TA98, Metabolic Activation: RAT, LIVER, S-9, AROCLOR 1254 (30%), Method: PREINCUBATION): inactive; negative
- mutagenic call (Test System: AMES SALMONELLA TYPHIMURIUM, Strain/Indicator: TA100, Metabolic Activation: HAMSTER, LIVER, S-9, AROCLOR 1254 (10%), Method: PREINCUBATION): inactive; negative
- mutagenic call (Test System: AMES SALMONELLA TYPHIMURIUM, Strain/Indicator: TA100, Metabolic Activation: HAMSTER, LIVER, S-9, AROCLOR 1254 (30%), Method: PREINCUBATION): inactive; negative
- mutagenic call [2]: inactive; negative
- mutagenic call (Test System: AMES SALMONELLA TYPHIMURIUM, Strain/Indicator: TA100, Metabolic Activation: RAT, LIVER, S-9, AROCLOR 1254 (10%), Method: PREINCUBATION): inactive; negative
- mutagenic call (Test System: AMES SALMONELLA TYPHIMURIUM, Strain/Indicator: TA100, Metabolic Activation: RAT, LIVER, S-9, AROCLOR 1254 (30%), Method: PREINCUBATION): inactive; negative
- mutagenic call (Test System: AMES SALMONELLA TYPHIMURIUM, Strain/Indicator: TA1535, Metabolic Activation: HAMSTER, LIVER, S-9, AROCLOR 1254 (10%), Method: PREINCUBATION): inactive; negative
- mutagenic call (Test System: AMES SALMONELLA TYPHIMURIUM, Strain/Indicator: TA1535, Metabolic Activation: HAMSTER, LIVER, S-9, AROCLOR 1254 (30%), Method: PREINCUBATION): inactive; negative
- mutagenic call [3]: inactive; negative
- mutagenic call (Test System: AMES SALMONELLA TYPHIMURIUM, Strain/Indicator: TA1535, Metabolic Activation: RAT, LIVER, S-9, AROCLOR 1254 (10%), Method: PREINCUBATION): inactive; negative
- mutagenic call (Test System: AMES SALMONELLA TYPHIMURIUM, Strain/Indicator: TA1535, Metabolic Activation: RAT, LIVER, S-9, AROCLOR 1254 (30%), Method: PREINCUBATION): inactive; negative
- mutagenic call (Test System: AMES SALMONELLA TYPHIMURIUM, Strain/Indicator: TA1537, Metabolic Activation: HAMSTER, LIVER, S-9, AROCLOR 1254 (10%), Method: PREINCUBATION): inactive; negative
- mutagenic call [4]: inactive; negative
- mutagenic call (Test System: AMES SALMONELLA TYPHIMURIUM, Strain/Indicator: TA1537, Metabolic Activation: RAT, LIVER, S-9, AROCLOR 1254 (10%), Method: PREINCUBATION): inactive; negative
- mutagenic call (Test System: Rhesus monkey peripheral blood lymphocytes, Strain/Indicator: HPRT/6-Thioguanine, Metabolic Activation: None, Method: Determined at 3-mo intervals from test subjects exposed to test chemical for 20 mo): inactive; negative

Structure (SMILES): C/C=C\c1cc(OC)c(OC)cc1OC
- mutagenic call (Test System: AMES SALMONELLA TYPHIMURIUM, Strain/Indicator: TA97, Metabolic Activation: NONE, Method: STANDARD PLATE): inactive; negative
- mutagenic call (Test System: AMES SALMONELLA TYPHIMURIUM, Strain/Indicator: TA97, Metabolic Activation: RAT, LIVER, S-9, AROCLOR 1254, Method: STANDARD PLATE): inactive; negative
- mutagenic call (Test System: AMES SALMONELLA TYPHIMURIUM, Strain/Indicator: TA98, Metabolic Activation: NONE, Method: STANDARD PLATE): inactive; negative
- mutagenic call (Test System: AMES SALMONELLA TYPHIMURIUM, Strain/Indicator: TA98, Metabolic Activation: RAT, LIVER, S-9, AROCLOR 1254, Method: STANDARD PLATE): inactive; negative
- mutagenic call [5]: inactive; negative
- mutagenic call (Test System: AMES SALMONELLA TYPHIMURIUM, Strain/Indicator: TA100, Metabolic Activation: RAT, LIVER, S-9, AROCLOR 1254, Method: STANDARD PLATE): inactive; negative
- mutagenic call [6]: active; positive
- mutagenic call (Test System: AMES SALMONELLA TYPHIMURIUM, Strain/Indicator: TA1535, Metabolic Activation: RAT, LIVER, S-9, AROCLOR 1254, Method: STANDARD PLATE): inactive; negative
- mutagenic call (Test System: AMES SALMONELLA TYPHIMURIUM, Strain/Indicator: TA1537, Metabolic Activation: NONE, Method: STANDARD PLATE): inactive; negative
- mutagenic call (Test System: AMES SALMONELLA TYPHIMURIUM, Strain/Indicator: TA1537, Metabolic Activation: RAT, LIVER, S-9, AROCLOR 1254, Method: STANDARD PLATE): inactive; negative
- mutagenic call (Test System: AMES SALMONELLA TYPHIMURIUM, Strain/Indicator: TA1538, Metabolic Activation: NONE, Method: STANDARD PLATE): inactive; negative
- mutagenic call (Test System: AMES SALMONELLA TYPHIMURIUM, Strain/Indicator: TA1538, Metabolic Activation: RAT, LIVER, S-9, AROCLOR 1254, Method: STANDARD PLATE): inactive; negative
- mutagenic call (Test System: UDS RAT HEPATOCYTES, Strain/Indicator: THY INCORP, Metabolic Activation: NONE, Method: LIQUID SCINTILLATION COUNTING): active; positive

Structure (SMILES): CC(C)(S)C(=O)N[C@@H](CS)C(=O)O
- mutagenic call [1]: inactive; negative
- mutagenic call (Test System: AMES SALMONELLA TYPHIMURIUM, Strain/Indicator: TA98, Metabolic Activation: RAT, LIVER, S-9, Method: PREINCUBATION): inactive; negative
- mutagenic call [2]: inactive; negative
- mutagenic call (Test System: AMES SALMONELLA TYPHIMURIUM, Strain/Indicator: TA100, Metabolic Activation: RAT, LIVER, S-9, Method: PREINCUBATION): inactive; negative
- mutagenic call [3]: inactive; negative
- mutagenic call (Test System: AMES SALMONELLA TYPHIMURIUM, Strain/Indicator: TA1535, Metabolic Activation: RAT, LIVER, S-9, Method: PREINCUBATION): inactive; negative
- mutagenic call [4]: inactive; negative
- mutagenic call (Test System: AMES SALMONELLA TYPHIMURIUM, Strain/Indicator: TA1537, Metabolic Activation: RAT, LIVER, S-9, Method: PREINCUBATION): inactive; negative
- mutagenic call (Test System: AMES SALMONELLA TYPHIMURIUM, Strain/Indicator: TA1538, Metabolic Activation: NONE, Method: PREINCUBATION): inactive; negative
- mutagenic call (Test System: AMES SALMONELLA TYPHIMURIUM, Strain/Indicator: TA1538, Metabolic Activation: RAT, LIVER, S-9, Method: PREINCUBATION): inactive; negative
- mutagenic call (Test System: E. COLI, Strain/Indicator: WP2, Metabolic Activation: NONE, Method: PREINCUBATION): inactive; negative
- mutagenic call (Test System: E. COLI, Strain/Indicator: WP2 UVRA, Metabolic Activation: NONE, Method: PREINCUBATION): inactive; negative
- mutagenic call (Test System: E. COLI, Strain/Indicator: WP2 UVRA, Metabolic Activation: RAT, LIVER, S-9, Method: PREINCUBATION): inactive; negative

Structure (SMILES): c1ccc(Cc2ccccc2OCC2CO2)cc1 (centres undefined)
- mutagenic call [5]: active; positive
- mutagenic call [6]: active; positive
